Experimental data reported in paper PMC7237442, “Drosophila taste neurons as an agonist-screening platform for P2X receptors” (Scientific Reports, 2020).
Residue numbers refer to the chain shown, from its start.

What was measured:
human P2X2 = biological target: T1, human P2X2 (Homo sapiens, UniProt Q9UBL9); test: action potential recording from Drosophila taste neurons, […] ATP; format: cell-based
T1 construct: gene P2RX2; human P2X2 variant A with C-terminal mCherry fusion tag
T1 sequence (Q9UBL9 1-471): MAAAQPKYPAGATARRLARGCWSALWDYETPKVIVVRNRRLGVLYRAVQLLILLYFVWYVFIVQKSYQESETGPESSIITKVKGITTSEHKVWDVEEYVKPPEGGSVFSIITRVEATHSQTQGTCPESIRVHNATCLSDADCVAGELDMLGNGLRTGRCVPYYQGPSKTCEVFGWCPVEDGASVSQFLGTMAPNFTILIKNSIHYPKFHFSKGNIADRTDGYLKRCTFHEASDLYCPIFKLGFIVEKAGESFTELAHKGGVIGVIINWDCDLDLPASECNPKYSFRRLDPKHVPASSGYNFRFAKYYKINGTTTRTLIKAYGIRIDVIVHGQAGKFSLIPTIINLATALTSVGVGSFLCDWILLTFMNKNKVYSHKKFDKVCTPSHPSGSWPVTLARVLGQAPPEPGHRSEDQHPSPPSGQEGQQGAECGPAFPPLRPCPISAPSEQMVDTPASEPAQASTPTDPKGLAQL

rat P2X2 [1] = biological target: T2, rat P2X2 (Rattus norvegicus, UniProt P49653, T184I); test: action potential recording from Drosophila taste neurons expressing the mutant
T2 construct: gene P2rx2; T184I rP2X2::GFP
T2 sequence (P49653 1-472 T184I): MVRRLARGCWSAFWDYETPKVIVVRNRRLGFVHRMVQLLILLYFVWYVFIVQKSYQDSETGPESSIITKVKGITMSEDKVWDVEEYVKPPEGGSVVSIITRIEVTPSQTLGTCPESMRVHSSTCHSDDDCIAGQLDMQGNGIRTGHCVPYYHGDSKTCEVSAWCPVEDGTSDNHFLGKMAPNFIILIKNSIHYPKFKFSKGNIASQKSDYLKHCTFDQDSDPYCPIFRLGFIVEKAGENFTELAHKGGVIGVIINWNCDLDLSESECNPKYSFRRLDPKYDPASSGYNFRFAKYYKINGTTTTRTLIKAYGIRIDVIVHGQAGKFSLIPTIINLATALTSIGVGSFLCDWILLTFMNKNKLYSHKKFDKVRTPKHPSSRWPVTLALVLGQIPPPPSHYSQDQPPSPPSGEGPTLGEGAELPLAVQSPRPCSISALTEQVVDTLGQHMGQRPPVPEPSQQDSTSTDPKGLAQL

rat P2X2 [2] = biological target: T3, rat P2X2 (Rattus norvegicus, UniProt P49653); test: action potential recording from Drosophila taste neurons expressing the receptor; also whole-cell voltage clamp in HEK […] cells
T3 construct: gene P2rx2; rat P2X2 with C-terminal mCherry fusion
T3 sequence (P49653 1-472): T2 sequence (P49653 1-472 T184I) with I184T

rat P2X2 [3] = biological target: T2, rat P2X2; test: action potential recording from Drosophila taste neurons, tested at […]; format: cell-based
rat P2X2 [4] = biological target: T3, rat P2X2; test: action potential recording from Drosophila taste neurons; confirmed by whole-cell voltage clamp in HEK […] cells at […]
rat P2X2 [5] = biological target: T3, rat P2X2; test: action potential recording from Drosophila taste neurons, tested at […]; partial agonist; format: cell-based
rat P2X2 [6] = biological target: T3, rat P2X2; test: action potential recording from Drosophila taste neurons, tested at […]; format: cell-based

## Nc1ncnc2c1ncn2[C@@H]1O[C@H](COP(=O)(O)OP(=O)(O)OP(=O)(O)O)[C@@H](O)[C@H]1O [ATP]
Human P2X2
  action potential recording from Drosophila taste neurons, 10 μM ATP: The human P2X2 ortholog was also tested in Drosophila taste neurons ... and it responded to ATP in a similar fashion
Rat P2X2 [1]
  EC50: 145 µM
Rat P2X2 [2]
  EC50: 8.7 µM

## Nc1nc(F)nc2c1ncn2[C@@H]1O[C@H](COP(=O)(O)OP(=O)(O)OP(=O)(O)O)[C@@H](O)[C@H]1O [2F-ATP]
Rat P2X2 [3]
  action potential recording from Drosophila taste neurons, tested at 100 μM: flies expressing rat P2X2^T184I and found that ATPγS, ATPαS and 2F-ATP elicited responses similar to ATP
Rat P2X2 [4]
  EC50: 17.2 µM

## Nc1nc(O)nc2c1ncn2[C@@H]1O[C@H](COP(=O)(O)OP(=O)(O)OP(=O)(O)O)[C@@H](O)[C@H]1O [2OH-ATP]
Rat P2X2 [5]
  action potential recording from Drosophila taste neurons, tested at 100 μM; part: several modifications at this position show full (2F-ATP) or partial (2-hydroxy-ATP) agonist activity

## Nc1ncnc2c1ncn2[C@@H]1O[C@H](COP(O)(=S)OP(=O)(O)OP(=O)(O)O)[C@@H](O)[C@H]1O (stereo partly drawn) [ATPαS]
Rat P2X2 [6]
  action potential recording from Drosophila taste neurons, tested at 100 μM: Several adenosine nucleotides gave responses as large as ATP, including the previously identified agonists ATPγS and ATPαS

## Nc1ncnc2c1ncn2[C@@H]1O[C@H](CO[P@](=O)(O)O[P@](=O)(O)O[P@@](=O)(O)S)[C@@H](O)[C@H]1O [ATPγS]
Rat P2X2 [3]
  action potential recording from Drosophila taste neurons, tested at 100 μM: flies expressing rat P2X2^T184I and found that ATPγS, ATPαS and 2F-ATP elicited responses similar to ATP
Rat P2X2 [6]
  action potential recording from Drosophila taste neurons, tested at 100 μM: ATPγS and ATPαS have previously been shown to act as agonists ... both were also effective agonists in the Drosophila system
